Assay results as given in patent US7763567B2, “Agrochemical compositions” (priority 2003, dated 2010).
Counter-ions that a name gives are not always drawn. Like-named read-outs stand apart in the source and are kept apart here.

How the values were obtained:
[1] = assay type: physicochemical; conditions: for loading at which compatible with compositions of WO 02/076212: actual amine
From the text: It is to be understood that the term physical incompatibility in relation to adjuvants used in bipyridyl compositions indicates either gross separation of one or more components of the composition which may or may not be accompanied by a significant change in formulation rheology or bulk homogeneity. It is not necessarily essential that the composition is fully homogeneous in a strict physical sense provided that the composition is substantially homogeneous in the bulk. Thus a slight separation of a second phase may be acceptable provided that the separated phase remains fully dispersed in the bulk. […] This is obviously undesirable for a number of reasons. The term physical compatibility indicates the reverse of physical incompatibility as defined above.

[2] = tested on: eight representative weed species; assay type: in vivo
Experimental: (§1) The bioperformance enhancement of paraquat in the presence of amines of the present invention was evaluated. An aqueous formulation of paraquat dichloride containing 0.5% by weight of amine (based on the weight of the parent amine and based on total spray volume) was applied using a moving track sprayer to eight representative weed species at 10, 20 and 40 g/ha (based on paraquat ion). The spray volume was equivalent to 200 l/ha.
(§2) Three replicates of each test were undertaken and the biological data (% activity where 0% represents no herbicidal effect and 100% represents complete kill) at 7 days after treatment is expressed in Table 4 as a mean over all species based on an average response over the combined rates. The results are compared with an equivalent formulation containing only paraquat chloride.
as §1, with “presence of some amines of” for “presence of amines of”, “dichloride containing 0.2% by weight” for “dichloride containing 0.5% by weight”
as §2, with “5” for “4”, “equivalent standard” for “equivalent”, “containing” for “containing only”, “chloride and 0.2% of an effective adjuvant blend” for “chloride.”

[3] = tested on: Ipomoea hederacea (IPOHE); assay type: in vivo
From the text: (§3) TEDA was first neutralized with hydrochloric acid to form the TEDA hydrochloride. An aqueous formulation of paraquat dichloride containing 0.5% by weight of TEDA based on total spray volume was applied to test species Ipomoea hederacea (IPOHE) and Sida spinosa (SIDSP) at 10 and 30 g/ha (based on paraquat ion). The spray volume was equivalent to 200 L/ha The biological data (% activity) at 6 days after treatment is expressed in Table 1 as an average response over the combined rates and is compared with an equivalent formulation containing only paraquat chloride.
(§4) The following compositions were compared using the general procedure of Example 1. TEDA was used in the form of its hydrochloride: • 1. An aqueous formulation containing paraquat dichloride and 0.5% by weight of TEDA hydrochloride based on total spray volume; • 2. An aqueous formulation containing paraquat dichloride and 0.5% by weight based on total spray volume of a mixture of TEDA hydrochloride and the surfactant EMPIGEN BB and TEDA at a ratio of TEDA to EMPIGEN BB of 5:2. EMPIGEN BB is lauryl betaine supplied at a concentration of 30%. The proportions given above and below are based on lauryl betaine content. • 3. An aqueous formulation (comparison) containing paraquat dichloride and 0.5% by weight based on total spray volume of EMPIGEN BB • 4. An aqueous formulation containing paraquat dichloride and 0.5% by weight based on total spray volume of a mixture of TEDA hydrochloride and the surfactant AGRIMUL PG2067 and TEDA at a ratio of TEDA to AGRIMUL PG2067 of 5:2. AGRIMUL PG2067 is an alkylpolyglycoside supplied at a concentration of 70%. The proportions given above and below are based on alkylpolyglycoside content. • 5. An aqueous formulation (comparison) containing paraquat chloride and 0.5% by weight based on total spray volume of AGRIMUL PG2067.

[4] = tested on: Sida spinosa (SIDSP); assay type: in vivo
From the text: as §3, §4

[5] = Example 4, 0.5% by weight amine, paraquat 10, 20 and 40 g/ha, 200 l/ha, 7 days after treatment, mean over all species and combined rates, three replicates
[6] = Example 2, general procedure of Example 1, adjuvant 0.5% by weight of total spray volume, TEDA:surfactant 5:2
[7] = Example 3, procedure of Example 1, adjuvant 0.5% by weight of total spray volume, TEDA salts with anionic surfactants

SMILES	Mean Activity (%) ([2]; in vivo)	loading at which compatible with compositions of WO 02/076212 [1]	Mean Activity (%) [2, 5] [%]	other results
CCCCCCCCOC(=O)CC(C(=O)OCCCCCCCC)S(=O)(=O)O.[Na] (stereo not shown) [sodium dioctyl sulphosuccinate, reference compound]	–	–	–	level at which physical separation / two phases observed ([1]; about 120 g/l paraquat ion, about 80 g/l diquat ion, alginate, about 120 g/l magnesium sulphate heptahydrate): below 10 g/l
NCCN [EDA as HCl salt, ethylenediamine, reference compound]	54	–	–	–
CN(C)CCN(C)C [TMEDA as HCl salt, tetramethylethylenediamine]	–	≤ 30 g/L	59	Mean Activity (%) ([2]; Example 5, 0.2% by weight amine, paraquat 10, 20 and 40 g/ha, 200 l/ha, 7 days after treatment, mean over all species and combined rates, three replicates): 56%
NCCNCCNCCN [TETA as HCl salt, triethylenetetramine, reference compound]	60	less than 30 g/l	–	–
C1CN2CCN1CC2 [TEDA, Triethylenediamine]	–	≥ 60 g/L	61	% Activity IPOHE [3, 6]: 64.4%; % Activity IPOHE [3, 7]: 63.8%; % Activity SIDSP [4, 6]: 35.8%; % Activity SIDSP [4, 7]: 45.9%
